Broadly, the half-life is how long it takes for the measured level to halve. Read a high half-life as slow loss. One may read the solubility as the concentration that dissolves in the medium under given conditions. Low readings indicate little dissolved substance, high ones much dissolved substance. One may read the Kd as a measure of binding affinity in units of concentration. What is called IC50 is the concentration that inhibits the measured activity by half. Read a low IC50 as inhibition by little substance.

Consider nine compounds from patent publication US20260294922A1, “Inhibitors of JUN N-Terminal Kinases (JNK1, JNK2, and/or JNK3) and Mitogen-Activated Protein Kinases (MAPK8, MAPK9, and/or MAPK10) and Methods of Using Same” (Baylor College of Medicine, priority 2023, published 2026).

≈ marks a conversion by molar mass, not a printed value. Entries after “also recorded” stand apart in the source; their conditions may differ.

Data set [1] in a line: In vitro metabolism in human liver microsomes. As to conditions: human, microsomes. As to the method:
(§1) The target product profile seeks to deliver JNK inhibitor as a once daily oral administration. To prioritize compounds for further development, in vitro metabolism of several CDD JNK inhibitors were determined to approximate the plasma half-life and the rate of metabolism of the compounds in vivo.
(In general: Liver microsomes are vesicles of endoplasmic reticulum, rich in cytochrome P450 enzymes.)

For data set [2], the system named is 12Z endometriotic epithelial cells. Put plainly: IL-1β-stimulated pro-inflammatory gene expression (qPCR) in 12Z cells. The conditions noted are these: relative to bentamapimod. Format: cell-based, human. From the text:
These studies indicate that NanoBRET assays are an innovative technical platform to measure target engagement of CDD JNK inhibitors with the target JNK1, JNK2 or JNK3. As further evidence that JNK inhibitors address disease-relevant endpoints, biological responses of JNK inhibitors are provided herein, as measured in target tissue cellular models. 12Z immortalized endometriotic epithelial cells and patient-derived endometriotic stromal cells have been cultured with reference compound bentamapimod, CDD-2628, and CDD-2728. To exemplify the effects of CDD-2628 and CDD-2728 in the endometrial cell cultures, gene expression was measured using qPCR (expressed as fold-change relative to GAPDH, a housekeeping gene that is not affected by culture treatment effects) that reflect synthesis of inflammatory lipids (PTGS2), transformation of cells to a more migration and invasive potential (MMP-3) and chemoattractant cytokines to recruit pro-inflammatory immune cells (IL-6, IL-8).
In the culture systems employed in FIGS. 12A-12J, FIGS. 13A-13B, FIGS. 14A-14H, FIGS. 15A-15H, and FIGS. 16A-16F, the treatment of cells with IL-1β is used to mimic the peritoneal environment where IL-1β is most frequently measured at higher concentrations in patients with endometriosis (0.1 ng/mL-1 ng/mL) than in unaffected women (<0.01 ng/mL). The use of IL-1β to mimic the pro-inflammatory environment is a common method in cellular assays for endometriosis research. Although the concentrations of IL-1β in these cell cultures are higher than measured in peritoneal fluid, there are multiple other pro-inflammatory cytokines in peritoneal fluid that contribute to the pro-inflammatory environment.
Specifically, 12Z cells were plated at a density of 1×10^5 cells/well in a 12-well tissue culture plate, serum-starved overnight (17-18 h), pre-treated with vehicle (DMSO) or JNK inhibitor for 30 minutes, then stimulated with 10 ng/ml IL-1β in the presence or absence of the JNK inhibitors for 6 hours. After the 6-hour treatment, mRNA was extracted from the cells using the Qiagen RNEasy mini isolation kit and […] of mRNA was reverse transcribed into cDNA using the qScript cDNA Supermix (Quanta Biosciences). cDNA was amplified using SYBR Green Master Mix (Applied Biosystems) with quantitative Real Time PCR (BioRad CFX) using pre-designed and validated primers specific for genes encoding IL6, IL8, PTGS2/COX2, and MMP3 (BioRad). Relative quantification of these specific genes was calculated by the ΔΔCt method, normalizing their abundance relative to the internal housekeeping gene, GAPDH, followed by quantification relative to the vehicle-treated cells. Statistical analyses and visualizations were performed using a One Way ANOVA with a Tukey's multiple comparison post-hoc test on GraphPad Prism version 9.
In general terms: Quantitative PCR measures a nucleic acid by following its amplification.

In data set [3] the target is T1, JNK3 (Homo sapiens, UniProt P53779). Briefly: JNK3 kinase (intrinsic ATPase, Kinase-Glo) assay. It is filed as biochemical. The conditions noted are these: Table 3a; read-out: Kd JNK3. (In general: In Kinase-Glo more light means more ATP remaining.)
T1 sequence (P53779 whole entry): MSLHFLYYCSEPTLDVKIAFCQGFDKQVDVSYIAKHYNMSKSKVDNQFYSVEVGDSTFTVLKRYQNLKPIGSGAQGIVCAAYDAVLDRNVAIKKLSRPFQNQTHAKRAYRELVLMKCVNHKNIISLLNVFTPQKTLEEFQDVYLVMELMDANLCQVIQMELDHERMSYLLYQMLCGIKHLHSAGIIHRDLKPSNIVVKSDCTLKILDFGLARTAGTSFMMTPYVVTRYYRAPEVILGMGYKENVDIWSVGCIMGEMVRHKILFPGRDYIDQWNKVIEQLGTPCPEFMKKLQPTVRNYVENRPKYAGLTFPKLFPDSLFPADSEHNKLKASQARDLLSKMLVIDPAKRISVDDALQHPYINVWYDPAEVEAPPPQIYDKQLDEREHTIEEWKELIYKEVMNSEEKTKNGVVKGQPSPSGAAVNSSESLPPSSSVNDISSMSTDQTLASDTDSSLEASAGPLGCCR
In data set [4] the target is T2, JNK2 (Homo sapiens, UniProt P45984). Put plainly: Promega NanoBRET intracellular target engagement (tracer K10 displacement), JNK2. It is filed as cell-based.
T2 sequence (P45984 whole entry): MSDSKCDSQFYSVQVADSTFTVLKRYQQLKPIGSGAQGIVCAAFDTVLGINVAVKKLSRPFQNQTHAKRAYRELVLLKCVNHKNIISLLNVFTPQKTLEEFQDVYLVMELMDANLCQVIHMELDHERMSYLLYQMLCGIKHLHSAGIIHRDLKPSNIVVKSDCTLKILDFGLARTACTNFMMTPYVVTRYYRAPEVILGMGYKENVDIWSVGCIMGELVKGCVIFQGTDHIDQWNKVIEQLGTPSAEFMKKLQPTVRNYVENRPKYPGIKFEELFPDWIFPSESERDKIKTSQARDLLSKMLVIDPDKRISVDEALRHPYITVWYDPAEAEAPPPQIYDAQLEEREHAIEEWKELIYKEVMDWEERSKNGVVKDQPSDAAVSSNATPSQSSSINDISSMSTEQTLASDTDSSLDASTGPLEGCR
Data set [5] has as its target T2, JNK2. Put plainly: JNK2 kinase (intrinsic ATPase, Kinase-Glo) assay. Format: biochemical. As to conditions: Table 3a; read-out: Kd JNK2.
Data set [6] can be described thus: In vitro metabolism in mouse liver microsomes. As to conditions: for half-life: mouse, microsomes. As to the method:
as §1

In data set [7] the target is T3, JNK1 (Homo sapiens, UniProt P45983). Put plainly: Promega NanoBRET intracellular target engagement (tracer K10 displacement), JNK1. It is filed as cell-based.
T3 sequence (P45983 whole entry): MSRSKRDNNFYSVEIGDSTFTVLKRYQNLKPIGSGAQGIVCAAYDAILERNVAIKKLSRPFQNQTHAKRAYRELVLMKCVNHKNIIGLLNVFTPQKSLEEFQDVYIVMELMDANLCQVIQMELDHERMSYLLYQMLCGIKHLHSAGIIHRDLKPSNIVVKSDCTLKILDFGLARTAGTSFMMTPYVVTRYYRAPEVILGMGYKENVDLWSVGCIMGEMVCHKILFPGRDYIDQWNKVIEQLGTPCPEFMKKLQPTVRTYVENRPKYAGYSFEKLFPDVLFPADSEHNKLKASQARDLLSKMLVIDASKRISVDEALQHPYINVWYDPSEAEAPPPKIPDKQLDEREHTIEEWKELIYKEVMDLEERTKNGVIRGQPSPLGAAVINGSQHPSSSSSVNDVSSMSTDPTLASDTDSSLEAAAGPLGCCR
For data set [8], the target named is T3, JNK1. Put plainly: JNK1 kinase (intrinsic ATPase, Kinase-Glo) assay. It is filed as biochemical. As to the method: JNK1, JNK2, and JNK3 hydrolyze ATP to ADP without any peptide substrates. This allows a very robust and fast endpoint assay where the remaining concentration of ATP is measured (BMG ClarioStar Plus plate reader) using the Kinase-Glo Assay kit from Promega (V6711). A luminescence signal is measured, which is produced by the catalytic conversion of beetle luciferin to oxyluciferin by luciferase. Potential inhibition of luciferase (i.e., false negatives) is easily detected, because assays without kinase are always included, and less ATP than is present in this control reaction could also indicate an inhibition of luciferase, which can be excluded by a counter screen with only luciferase.
To mitigate violation of the linear initial velocity principle, which is a problem in end-point assays when doing dose-responses, the enzyme concentration was carefully optimized, in a total assay volume of 25 μL. […] The kinase reaction was done for 30 or 60 min at 30° C., and detection of leftover ATP was measured according to Promega's protocol. […] Fractional activities were obtained from normalized data. Non-linear regression (GraphPad Prism7) and a modified Morrison equation for tight binding was used to determine apparent Ki values for inhibitors, assuming no particular mode of inhibition. An orthogonal binding assay (LanthaScreen) was outsourced to ThermoFisher Scientific's SelectScreen Services to determine IC50 values.

Data set [9] addresses T1, JNK3. Briefly: Promega NanoBRET intracellular target engagement (tracer K10 displacement), JNK3. Format: cell-based.

Consider `O=C(Nc1ccc(O)c(C(=O)N2CCCCC2)c1)c1cc2c(-c3cnc4[nH]ccc4c3)cccc2s1` [CDD-2634, N-(4-hydroxy-3-(piperidine-1-carbonyl)phenyl)-4-(1H-pyrrolo[2,3-b]pyridin-5-yl)benzo[b]thiophene-2-carboxamide], for which the half-life is 81.6 min in [1] and 59 min in data set [6]. The same compound showed a solubility in “Solubility” of 1.1 µM (≈ 0.546 µg/mL). The IL-8 expression entry in data set [2] is listed as “more potent inhibitors of IL-8 expression than bentamapimod”. Besides, the Kd was found to be 2.62 ± 0.28 nM on JNK3 [3], 1.81 ± 0.19 nM at JNK2 [5] and 0.29 ± 0.13 nM on JNK1 [8]. Also, the figures for the IC50 at JNK2 [4], at JNK1 [7] and at JNK3 [9] were 161 nM, 172 nM and 119 nM, respectively.
For `O=C(Nc1cccc(C(=O)N2CCCCC2)c1)c1cc2c(-c3cnc4[nH]ccc4c3)cccc2s1` [CDD-2630, N-(3-(piperidine-1-carbonyl)phenyl)-4-(1H-pyrrolo[2,3-b]pyridin-5-yl)benzo[b]thiophene-2-carboxamide], the half-life in data set [1] was 18.2 min; in [6], 3.5 min. The amount in solution in “Solubility” (solubility) came to 1.6 µM (≈ 0.769 µg/mL). Also, the Kd at JNK3 [3] came to 1.63 ± 0.26 nM; on JNK2 [5], 2.47 ± 0.25 nM; on JNK1 [8], 0.68 ± 0.08 nM. For the same compound, the IC50 on JNK2 [4] amounted to 230 nM; at JNK1 [7], 430 nM; at JNK3 [9], 149 nM.
As for `O=C(Nc1cncnc1)c1cc2c(-c3cnc4[nH]ccc4c3)cccc2s1` [CDD-3015, N-(pyrimidin-5-yl)-4-(1H-pyrrolo[2,3-b]pyridin-5-yl)benzo[b]thiophene-2-carboxamide], the half-life in data set [1] was 214 min; in data set [6], 46.4 min. The amount in solution in the data set “Solubility” (solubility) came to 0.3 µM (≈ 0.111 µg/mL). The Kd on JNK3 [3] came to 3.18 ± 0.14 nM; at JNK2 [5], 6.84 ± 0.81 nM; at JNK1 [8], 2.34 ± 0.3 nM. The figures for the IC50 on JNK2 [4], at JNK1 [7] and on JNK3 [9] were 3200 nM, 3500 nM and 8200 nM, respectively.
Consider `COc1ccc(NC(=O)c2cc3c(-c4cnc5[nH]cc(C)c5c4)cccc3s2)cc1C(=O)N(C)C` [CDD-2731, N-(3-(dimethylcarbamoyl)-4-methoxyphenyl)-4-(3-methyl-1H-pyrrolo[2,3-b]pyridin-5-yl)benzo[b]thiophene-2-carboxamide], for which the half-life in data set [1] stood at 115 min; in data set [6], 31.8 min. In addition, the solubility in “Solubility” turned out to be 3.2 µM (≈ 1.55 µg/mL). The Kd on JNK3 [3] stood at 0.81 ± 0.05 nM; at JNK2 [5] it was 1.28 ± 0.15 nM; at JNK1 [8], 0.17 ± 0.05 nM. For the same compound, the IC50 is 156 nM at JNK2 [4], 156 nM at JNK1 [7] and 124 nM at JNK3 [9]. Further, the “metabolism in liver microsomes” value in data set [6] (liver microsomes, in words) is “rapidly metabolized”.
With `COc1ccc(NC(=O)c2cc3c(-c4cnc5[nH]ccc5c4)cccc3s2)cc1C(=O)N1CCOCC1` [CDD-2635, N-(4-methoxy-3-(morpholine-4-carbonyl)phenyl)-4-(1H-pyrrolo[2,3-b]pyridin-5-yl)benzo[b]thiophene-2-carboxamide], the values for the half-life in [1] and in data set [6] were 74.6 min and 28.6 min, respectively. For the same compound, the concentration in solution in “Solubility” (solubility) came to 2.6 µM (≈ 1.33 µg/mL). Moreover, the Kd on JNK3 [3] came to 0.76 ± 0.22 nM; on JNK2 [5], 1.54 ± 0.13 nM; at JNK1 [8], 0.16 ± 0.05 nM. Further, the IC50 at JNK2 [4] came to 325 nM; at JNK1 [7] it was 186 nM; on JNK3 [9], 160 nM.
Regarding `COc1ccc(NC(=O)c2cc3c(-c4cnc5[nH]ccc5c4)cccc3s2)cc1C(=O)N(C)C` [CDD-2628, N-(3-(dimethylcarbamoyl)-4-methoxyphenyl)-4-(1H-pyrrolo[2,3-b]pyridin-5-yl)benzo[b]thiophene-2-carboxamide], the half-life was determined as 98.4 min in [1] and 40.6 min in [6]. In “Solubility”, this compound registered a solubility of 7.4 µM (≈ 3.48 µg/mL). Further, in data set [2], the IL-6 expression result is reported as “concentration-dependent decreases”. Besides, in data set [2], the IL-8 expression result is “improved potency; also recorded: more effective than bentamapimod”. Moreover, in data set [2], the MMP-3 expression entry is on record as “improved potency; also recorded: more effective than bentamapimod”. For the same compound, in data set [2], the PTGS2 expression entry is on record as “concentration-dependent decreases”. Further, the Kd was 0.52 ± 0.05 nM at JNK3 [3], 1.6 ± 0.17 nM at JNK2 [5] and 1.83 ± 0.26 nM at JNK1 [8]. For the same compound, the IC50 at JNK2 [4] was found to be 520 nM; on JNK1 [7] it was 500 nM; on JNK3 [9], 566 nM.
As for `COc1ccc(NC(=O)c2cc3c(-c4cnc5[nH]ccc5c4)cccc3s2)cc1C(=O)N1CCN(C)CC1` [CDD-2636, N-(4-methoxy-3-(4-methylpiperazine-1-carbonyl)phenyl)-4-(1H-pyrrolo[2,3-b]pyridin-5-yl)benzo[b]thiophene-2-carboxamide], the half-life in data set [1] stood at 16 min; in [6] it was 16.3 min. This compound yielded a solubility in “Solubility” of 4.9 µM (≈ 2.58 µg/mL). For the same compound, the Kd at JNK3 [3] is 0.54 ± 0.09 nM; on JNK2 [5], 1.93 ± 0.14 nM; at JNK1 [8], 0.57 ± 0.1 nM. Also, the IC50 at JNK2 [4] came out at 820 nM; at JNK1 [7], 1200 nM; on JNK3 [9], 1200 nM.
For the compound `CN(C)C(=O)c1ccc(O)c(NC(=O)c2cc3c(-c4cnc5[nH]ccc5c4)cccc3s2)c1` [CDD-2938, N-(5-(dimethylcarbamoyl)-2-hydroxyphenyl)-4-(1H-pyrrolo[2,3-b]pyridin-5-yl)benzo[b]thiophene-2-carboxamide], the half-life in data set [1] was 24.3 min; in data set [6], 24 min. The solubility in the data set “Solubility” was 5.4 µM (≈ 2.47 µg/mL). Further, the Kd at JNK3 [3] stood at 1.41 ± 0.3 nM; on JNK2 [5], 1.22 ± 0.27 nM; on JNK1 [8], 4.6 ± 1.9 nM. For the same compound, the IC50 at JNK2 [4] came to 16100 nM; at JNK1 [7] it was 11500 nM; at JNK3 [9], 15400 nM.
For the compound `CN(C)C(=O)c1cc(NC(=O)c2cc3c(-c4cnc5[nH]ccc5c4)cccc3s2)ccn1` [CDD-3012, 4-(4-(1H-pyrrolo[2,3-b]pyridin-5-yl)benzo[b]thiophene-2-carboxamido)-N,N-dimethylpicolinamide], the half-life in data set [1] came out at 548 min; in data set [6], 66.7 min. The compound further displayed a solubility in the data set “Solubility” of 2 µM (≈ 0.883 µg/mL). Besides, the Kd worked out at 2.08 ± 0.18 nM on JNK3 [3], 4.84 ± 0.49 nM on JNK2 [5] and 0.52 ± 0.12 nM at JNK1 [8]. The IC50 was determined as 3600 nM at JNK2 [4], 3800 nM on JNK1 [7] and 6000 nM on JNK3 [9].
